Assay results from paper PMC7948494, “Structure of an ancestral ADP-dependent kinase with fructose-6P reveals key residues for binding, catalysis, and ligand-induced conformational changes” (The Journal of Biological Chemistry, 2020).
Residue numbers refer to the chain shown, from its start.

Legend:
AncMsPFK [1] = molecular target: T1, AncMsPFK (synthetic construct, UniProt Z9Y5W3ZEF0, E111A); experiment: coupled NADH oxidation assay, […] nm; assay type: biochemical; conditions: 1 mM ADP, 2 mM MgCl2, 100 mM Pipes pH 6.5, 25 °C; substrate inhibition fit
T1 construct: synthetic gene in pET-15, N-terminal polyhistidine tag, E. coli BL21; heat step and Ni-Sepharose; 490 residues expected, one molecule per asymmetric unit
T1 sequence (Z9Y5W3ZEF0 22-511 E111A): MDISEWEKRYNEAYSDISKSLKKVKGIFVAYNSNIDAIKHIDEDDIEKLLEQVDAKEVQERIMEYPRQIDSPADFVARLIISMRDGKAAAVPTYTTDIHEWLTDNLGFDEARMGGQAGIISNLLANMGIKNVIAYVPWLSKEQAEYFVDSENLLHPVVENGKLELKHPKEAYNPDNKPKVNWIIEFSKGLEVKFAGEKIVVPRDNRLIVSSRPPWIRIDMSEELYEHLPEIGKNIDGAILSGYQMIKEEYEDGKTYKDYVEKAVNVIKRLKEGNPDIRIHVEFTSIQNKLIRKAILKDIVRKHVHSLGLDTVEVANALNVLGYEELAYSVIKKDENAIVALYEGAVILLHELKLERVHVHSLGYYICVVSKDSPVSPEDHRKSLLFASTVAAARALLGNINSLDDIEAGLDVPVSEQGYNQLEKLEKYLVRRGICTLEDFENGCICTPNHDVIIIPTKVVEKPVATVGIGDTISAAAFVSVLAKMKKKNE

AncMsPFK [2] = molecular target: T2, AncMsPFK (synthetic construct, UniProt Z9Y5W3ZEF0); experiment: coupled NADH oxidation assay, […] nm; assay type: biochemical; conditions: 1 mM ADP, 2 mM MgCl2, 100 mM Pipes pH 6.5, 25 °C
T2 construct: synthetic gene in pET-15, N-terminal polyhistidine tag, E. coli BL21; heat step and Ni-Sepharose; 490 residues expected, one molecule per asymmetric unit
T2 sequence (Z9Y5W3ZEF0 22-511): T1 sequence (Z9Y5W3ZEF0 22-511 E111A) with A90E

AncMsPFK [3] = molecular target: T2, AncMsPFK; experiment: X-ray crystallography, […] Å; assay type: binding; conditions: closed conformation

F6P / KM mM (AncMsPFK [1]) | F6P / KM mM (AncMsPFK [2]) | SMILES | X-ray crystallography, 3.12 Å (AncMsPFK [3]; ternary complex with Mg-ADPβS, active site) | X-ray crystallography, 3.12 Å (AncMsPFK [3]; ternary complex with F6P and Mg2+, nucleotide site)
0.09 ± 9.6 × 10^−3 mM | 0.014 ± 1.5 × 10^−3 mM | O=P(O)(O)OC[C@H]1OC(O)(CO)[C@@H](O)[C@@H]1O (stereo partly shown) [F6P] | The structure of the AncMsPFK in complex with F6P-Mg-ADPβS was solved by molecular replacement | –
– | – | Nc1ncnc2c1ncn2[C@@H]1O[C@H](COP(=O)(O)OP(=O)(O)S)[C@@H](O)[C@H]1O (stereo partly shown) [ADPβS] | – | The structure of the AncMsPFK in complex with F6P-Mg-ADPβS was solved by molecular replacement
